From patent publication US20120115845A1, “THERAPEUTIC AGENTS” (priority 2007, published 2012)

Columns and labels:
human GHS receptor [1] = target: T1, human GHS receptor (Homo sapiens, UniProt Q92847); assay: Ghrelin IP1 agonist assay (IP1 HTRF); type: cell-based; parameters: expressed in transfected cells; host or cells: HEK293s; details: for Emax: 2 h, agonist effect as % maximal effect of GHRP-6 (5 μM), read-out: h IP1 ag %; for EC50: HEK293s cells stably expressing human GHS receptor, 2 hours at 37° C., read-out: h IP1 ag EC50
Outline: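 Cells: HEK293s stably expressing human GHS receptor, in stimulation buffer containing 0.02% fatty acid free BSA.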

human GHS receptor [2] = target: T1, human GHS receptor; assay: h bind IC50 (binding assay, Table 1); details: human receptor; Table 1

T1 sequence (Q92847 whole entry): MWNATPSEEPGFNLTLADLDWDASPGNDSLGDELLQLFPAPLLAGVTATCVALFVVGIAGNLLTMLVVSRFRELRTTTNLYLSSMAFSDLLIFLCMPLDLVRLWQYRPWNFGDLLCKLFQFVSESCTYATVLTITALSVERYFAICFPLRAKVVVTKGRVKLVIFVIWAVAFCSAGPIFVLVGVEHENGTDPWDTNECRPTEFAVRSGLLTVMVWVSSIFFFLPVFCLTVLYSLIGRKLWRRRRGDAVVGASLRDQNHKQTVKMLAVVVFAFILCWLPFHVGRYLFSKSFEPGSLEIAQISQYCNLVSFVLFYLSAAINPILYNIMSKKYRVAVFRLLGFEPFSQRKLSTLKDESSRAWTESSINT

| Structure (SMILES) | Emax (human GHS receptor [1]) | EC50 (human GHS receptor [1]) | IC50 (human GHS receptor [2]) |
| --- | --- | --- | --- |
| CS(=O)(=O)c1ccc2nc(NC(=O)NC(=O)c3ccccc3C(F)(F)F)sc2c1 [Example 170, N-[(6-Methylsulfonylbenzothiazol-2-yl)carbamoyl]-2-(trifluoromethyl)benzamide] | 9.73% | 75.7 nM | 831 nM |
| O=C(NC(=O)c1ccccc1Cl)Nc1nc2ccc(S(=O)(=O)[C@H]3CCNC3)cc2s1 [Example 171, 2-Chloro-N-[[6-[(3S)-pyrrolidin-3-yl]sulfonylbenzothiazol-2-yl]carbamoyl]benzamide] | 44% | 18.6 nM | 296 nM |
| O=C(NC(=O)c1ccccc1Cl)Nc1nc2ccc(S(=O)(=O)[C@@H]3CCNC3)cc2s1 [Example 172, 2-Chloro-N-[[6-[(3R)-pyrrolidin-3-yl]sulfonylbenzothiazol-2-yl]carbamoyl]benzamide] | 44.4% | 7.31 nM | 28.3 nM |
| CCN1CCC(S(=O)(=O)c2ccc3nc(NC(=O)NC(=O)c4ccccc4Cl)sc3c2)CC1 [Example 173, 2-Chloro-N-[[6-[(1-ethyl-4-piperidyl)sulfonyl]benzothiazol-2-yl]carbamoyl]benzamide] | 52.2% | 8.43 nM | 76.2 nM |
| O=C(NC(=O)c1ccccc1Cl)Nc1nc2ccc(S(=O)(=O)C3CN(CC4CC4)C3)cc2s1 [Example 175, 2-Chloro-N-[[6-[1-(cyclopropylmethyl)azetidin-3-yl]sulfonylbenzothiazol-2-yl]carbamoyl]benzamide] | 30.1% | 22.4 nM | 64.1 nM |
| CS(=O)(=O)c1ccc2nc(NC(=O)NC(=O)c3cc(F)c(F)cc3Cl)sc2c1 [Example 177, 2-Chloro-4,5-difluoro-N-[(6-methylsulfonylbenzothiazol-2-yl)carbamoyl]benzamide] | 22.8% | 66.4 nM | 248 nM |
| O=C(NC(=O)c1ccccc1Cl)Nc1nc2ccc(S(=O)(=O)Cc3ccccn3)cc2s1 [Example 178, 2-Chloro-N-[[6-(pyridin-2-ylmethylsulfonyl)benzothiazol-2-yl]carbamoyl]benzamide] | 18.7% | 77.7 nM | 108 nM |
| CS(=O)(=O)c1ccc2nc(NC(=O)NC(=O)c3ccc(Cl)cc3Cl)sc2c1 [Example 179, 2,4-Dichloro-N-[(6-methylsulfonylbenzothiazol-2-yl)carbamoyl]benzamide] | 61.2% | 5.91 nM | 18.3 nM |
| CS(=O)(=O)c1ccc2nc(NC(=O)NC(=O)c3ccc([N+](=O)[O-])cc3Cl)sc2c1 [Example 180, 2-Chloro-N-[(6-methylsulfonylbenzothiazol-2-yl)carbamoyl]-4-nitro-benzamide] | 5.93% | 67.3 nM | 127 nM |
| CS(=O)(=O)c1ccc2nc(NC(=O)NC(=O)c3cc(C(F)(F)F)ccc3Cl)sc2c1 [Example 181, 2-Chloro-N-[(6-methylsulfonylbenzothiazol-2-yl)carbamoyl]-5-(trifluoromethyl)benzamide] | 54.4% | 0.633 nM | 49 nM |
| O=C(NC(=O)c1ccccc1Cl)Nc1nc2ccc(S(=O)(=O)C3CCN(CC4CC4)CC3)cc2s1 [Example 182, 2-Chloro-N-[[6-[[1-(cyclopropylmethyl)-4-piperidyl]sulfonyl]benzothiazol-2-yl]carbamoyl]benzamide] | 39.6% | 25.1 nM | 8.9 nM |
| O=C(NC(=O)c1ccccc1Cl)Nc1nc2ccc(S(=O)(=O)C3CNC3)cc2s1 [Example 183, N-[[6-(Azetidin-3-ylsulfonyl)benzothiazol-2-yl]carbamoyl]-2-chloro-benzamide] | 42.1% | 13.8 nM | 6.7 nM |
| CCN1CC(S(=O)(=O)c2ccc3nc(NC(=O)NC(=O)c4ccccc4Cl)sc3c2)C1 [Example 185, 2-Chloro-N-[[6-(1-ethylazetidin-3-yl)sulfonylbenzothiazol-2-yl]carbamoyl]benzamide] | 39.7% | 69.2 nM | 66.9 nM |
| O=C(NC(=O)c1ccccc1Cl)Nc1nc2ccc(S(=O)(=O)Cc3cccnc3)cc2s1 [Example 187, 2-Chloro-N-[[6-(pyridin-3-ylmethylsulfonyl)benzothiazol-2-yl]carbamoyl]benzamide] | 16.1% | 5.95 nM | 58.1 nM |
| Cc1cc(CS(=O)(=O)c2ccc3nc(NC(=O)NC(=O)c4ccccc4Cl)sc3c2)no1 [Example 188, 2-Chloro-N-[[6-[(5-methyl-1,2-oxazol-3-yl)methylsulfonyl]benzothiazol-2-yl]carbamoyl]benzamide] | 16.4% | 52.1 nM | 53.8 nM |
| O=C(NC(=O)c1ccccc1Cl)Nc1nc2ccc(S(=O)(=O)Cc3ncc[nH]3)cc2s1 [Example 189, 2-Chloro-N-[[6-(1H-imidazol-2-ylmethylsulfonyl)benzothiazol-2-yl]carbamoyl]benzamide] | 20.4% | 280 nM | 274 nM |

| Structure (SMILES) | Emax (human GHS receptor [1]) | EC50 (human GHS receptor [1]) | IC50 (human GHS receptor [2]) |
| --- | --- | --- | --- |
| O=C(NC(=O)c1ccccc1Cl)Nc1nc2ccc(S(=O)(=O)CCc3ccccn3)cc2s1 [Example 190, 2-Chloro-N-[[6-(2-pyridin-2-ylethylsulfonyl)benzothiazol-2-yl]carbamoyl]benzamide] | 21.3% | 82.2 nM | 51.9 nM |
| Cc1nc(CS(=O)(=O)c2ccc3nc(NC(=O)NC(=O)c4ccccc4Cl)sc3c2)cs1 [Example 191, 2-Chloro-N-[[6-[(2-methyl-1,3-thiazol-4-yl)methylsulfonyl]benzothiazol-2-yl]carbamoyl]benzamide] | 15.5% | 75.2 nM | 128 nM |
| COCCCS(=O)(=O)c1ccc2nc(NC(=O)NC(=O)c3ccccc3Cl)sc2c1 [Example 192, 2-Chloro-N-[[6-(3-methoxypropylsulfonyl)benzothiazol-2-yl]carbamoyl]benzamide] | 23.8% | 51.3 nM | 52.4 nM |
| O=C(NC(=O)c1ccccc1Cl)Nc1nc2ccc(S(=O)(=O)CCCn3ccnc3)cc2s1 [Example 193, 2-Chloro-N-[[6-(3-imidazol-1-ylpropylsulfonyl)benzothiazol-2-yl]carbamoyl]benzamide] | 30.6% | 18.5 nM | 25.9 nM |
| Cc1ccc(F)c(C(=O)NC(=O)Nc2nc3ccc(S(C)(=O)=O)cc3s2)c1Cl [Example 194, 2-Chloro-6-fluoro-3-methyl-N-[(6-methylsulfonylbenzothiazol-2-yl)carbamoyl]benzamide] | 39.4% | 9.52 nM | 172 nM |
| Cc1ccc(Cl)c(C(=O)NC(=O)Nc2nc3ccc(S(C)(=O)=O)cc3s2)c1F [Example 195, 6-Chloro-2-fluoro-3-methyl-N-[(6-methylsulfonylbenzothiazol-2-yl)carbamoyl]benzamide] | 22.8% | 32.9 nM | 114 nM |
| C[C@@H]1CN(CCCS(=O)(=O)c2ccc3nc(NC(=O)NC(=O)c4ccccc4Cl)sc3c2)C[C@H](C)N1 [Example 196, 2-Chloro-N-[[6-[3-[(3S,5R)-3,5-dimethylpiperazin-1-yl]propylsulfonyl]benzothiazol-2-yl]carbamoyl]benzamide] | 79.4% | 0.934 nM | 1.5 nM |
| CCN1CCN(CCCS(=O)(=O)c2ccc3nc(NC(=O)NC(=O)c4ccccc4Cl)sc3c2)CC1 [Example 197, 2-Chloro-N-[[6-[3-(4-ethylpiperazin-1-yl)propylsulfonyl]benzothiazol-2-yl]carbamoyl]benzamide] | 55.8% | 2.02 nM | 0.4 nM |
| CC(=O)N1CCN(CCCS(=O)(=O)c2ccc3nc(NC(=O)NC(=O)c4ccccc4Cl)sc3c2)CC1 [Example 198, N-[[6-[3-(4-Acetylpiperazin-1-yl)propylsulfonyl]benzothiazol-2-yl]carbamoyl]-2-chloro-benzamide] | 32.1% | 11 nM | 10.8 nM |
| CC(C)N1CCN(CCCS(=O)(=O)c2ccc3nc(NC(=O)NC(=O)c4ccccc4Cl)sc3c2)CC1 [Example 199, 2-Chloro-N-[[6-[3-(4-propan-2-ylpiperazin-1-yl)propylsulfonyl]benzothiazol-2-yl]carbamoyl]benzamide] | 42.2% | 1.82 nM | 2.2 nM |
| COCCN1CCN(CCCS(=O)(=O)c2ccc3nc(NC(=O)NC(=O)c4ccccc4Cl)sc3c2)CC1 [Example 200, 2-Chloro-N-[[6-[3-[4-(2-methoxyethyl)piperazin-1-yl]propylsulfonyl]benzothiazol-2-yl]carbamoyl]benzamide] | 41.4% | 4.53 nM | 2.7 nM |
| CN(C)C1CCN(CCCS(=O)(=O)c2ccc3nc(NC(=O)NC(=O)c4ccccc4Cl)sc3c2)CC1 [Example 201, 2-Chloro-N-[[6-[3-(4-dimethylamino-1-piperidyl)propylsulfonyl]benzothiazol-2-yl]carbamoyl]benzamide] | 29.7% | 4.54 nM | 0.9 nM |
| CN(C)CCCS(=O)(=O)c1ccc2nc(NC(=O)NC(=O)c3ccccc3Cl)sc2c1 [Example 202, 2-Chloro-N-[[6-(3-dimethylaminopropylsulfonyl)benzothiazol-2-yl]carbamoyl]benzamide] | 51.3% | 13.4 nM | 8.7 nM |
| COCCNCCCS(=O)(=O)c1ccc2nc(NC(=O)NC(=O)c3ccccc3Cl)sc2c1 [Example 203, 2-Chloro-N-[[6-[3-(2-methoxyethylamino)propylsulfonyl]benzothiazol-2-yl]carbamoyl]benzamide] | 29.4% | 6.22 nM | 14.9 nM |
| CN1CCCN(CCCS(=O)(=O)c2ccc3nc(NC(=O)NC(=O)c4ccccc4Cl)sc3c2)CC1 [Example 204, 2-Chloro-N-[[6-[3-(4-methyl-1,4-diazepan-1-yl)propylsulfonyl]benzothiazol-2-yl]carbamoyl]benzamide] | 36.2% | 6.92 nM | 1.2 nM |
